Measured values published in the kinase profiling compilation of Christmann-Franck et al. (2016).
Values belong to the compound of their own block, whether it stands above or below them.

Experiments:
Test in all cases: radiometric filter-binding kinase assay
[1] = system: AKT1 (human), P31749 [S473D]
AURKA (human) = AURKA (human) (UniProt O14965)
BRSK1 (human) = BRSK1 (human) (UniProt Q8TDC3)
BRSK2 (human) = BRSK2 (human) (UniProt Q8IWQ3)
BTK (human) = BTK (human) (UniProt Q06187)
CSK (human) = CSK (human) (UniProt P41240)
CSNK1D (human) = CSNK1D (human) (UniProt P48730)
EEF2K (human) = EEF2K (human) (UniProt O00418)
EPHA4 (human) = EPHA4 (human) (UniProt P54764)
ERBB4 (human) = ERBB4 (human) (UniProt Q15303)
FGFR1 (human) = FGFR1 (human) (UniProt P11362)
GSK3B (human) = GSK3B (human) (UniProt P49841)
HIPK1 (human) = HIPK1 (human) (UniProt Q86Z02)
HIPK3 (human) = HIPK3 (human) (UniProt Q9H422)
IKBKB (human) = IKBKB (human) (UniProt O14920)
Sequence of IKBKB (human) (O14920 whole entry, looked up): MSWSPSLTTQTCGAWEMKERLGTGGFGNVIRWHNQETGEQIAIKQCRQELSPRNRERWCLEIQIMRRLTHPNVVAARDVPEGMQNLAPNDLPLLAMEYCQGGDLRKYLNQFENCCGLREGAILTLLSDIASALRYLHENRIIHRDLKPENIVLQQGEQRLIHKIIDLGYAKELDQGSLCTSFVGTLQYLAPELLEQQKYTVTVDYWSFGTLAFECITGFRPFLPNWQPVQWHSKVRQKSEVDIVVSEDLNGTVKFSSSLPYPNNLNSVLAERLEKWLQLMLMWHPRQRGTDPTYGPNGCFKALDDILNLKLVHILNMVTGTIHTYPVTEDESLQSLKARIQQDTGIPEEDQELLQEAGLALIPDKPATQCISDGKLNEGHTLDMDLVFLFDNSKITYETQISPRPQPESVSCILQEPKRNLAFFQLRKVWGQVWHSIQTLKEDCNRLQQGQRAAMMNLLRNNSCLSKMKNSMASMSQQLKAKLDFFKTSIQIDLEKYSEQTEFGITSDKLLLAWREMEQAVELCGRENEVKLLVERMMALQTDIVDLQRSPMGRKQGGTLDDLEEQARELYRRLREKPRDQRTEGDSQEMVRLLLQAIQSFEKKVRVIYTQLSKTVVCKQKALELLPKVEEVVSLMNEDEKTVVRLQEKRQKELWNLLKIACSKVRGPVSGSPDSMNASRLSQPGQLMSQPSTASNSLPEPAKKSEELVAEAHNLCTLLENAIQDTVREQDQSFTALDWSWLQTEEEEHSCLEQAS

MAP2K2 (human) = MAP2K2 (human) (UniProt P36507)
MAP2K6 (human) = MAP2K6 (human) (UniProt P52564)
MAP3K1 (human) = MAP3K1 (human) (UniProt Q13233)
MAP3K5 (human) = MAP3K5 (human) (UniProt Q99683)
MAPK1 (human) = MAPK1 (human) (UniProt P28482)
Sequence of MAPK1 (human) (P28482 whole entry, looked up): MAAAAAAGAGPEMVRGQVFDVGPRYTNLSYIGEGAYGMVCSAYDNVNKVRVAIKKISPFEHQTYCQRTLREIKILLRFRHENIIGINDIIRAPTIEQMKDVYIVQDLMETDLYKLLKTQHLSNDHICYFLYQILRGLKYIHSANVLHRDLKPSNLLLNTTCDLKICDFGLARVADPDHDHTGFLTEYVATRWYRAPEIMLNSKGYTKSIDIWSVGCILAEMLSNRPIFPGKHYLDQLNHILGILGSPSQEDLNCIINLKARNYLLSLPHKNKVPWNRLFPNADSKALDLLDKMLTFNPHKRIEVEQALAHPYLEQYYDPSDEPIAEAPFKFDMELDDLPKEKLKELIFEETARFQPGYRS

MAPK15 (human) = MAPK15 (human) (UniProt Q8TD08)
Sequence of MAPK15 (human) (Q8TD08 whole entry, looked up): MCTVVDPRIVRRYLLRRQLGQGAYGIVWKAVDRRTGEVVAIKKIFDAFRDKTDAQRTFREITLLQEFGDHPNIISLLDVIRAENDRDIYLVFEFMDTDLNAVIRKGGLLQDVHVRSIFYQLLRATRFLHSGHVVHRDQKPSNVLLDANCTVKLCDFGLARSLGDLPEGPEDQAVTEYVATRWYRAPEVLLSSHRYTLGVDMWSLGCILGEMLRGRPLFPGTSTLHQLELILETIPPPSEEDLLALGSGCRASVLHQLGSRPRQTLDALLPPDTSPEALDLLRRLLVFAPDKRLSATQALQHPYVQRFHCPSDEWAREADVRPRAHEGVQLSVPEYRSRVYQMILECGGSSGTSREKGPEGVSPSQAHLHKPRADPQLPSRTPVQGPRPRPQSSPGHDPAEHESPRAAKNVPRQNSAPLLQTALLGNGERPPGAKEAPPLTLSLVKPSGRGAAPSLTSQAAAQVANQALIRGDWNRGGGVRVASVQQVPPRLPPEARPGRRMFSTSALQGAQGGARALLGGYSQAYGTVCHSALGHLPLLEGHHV

MAPK3 (human) = MAPK3 (human) (UniProt P27361)
MAPK8 (human) = MAPK8 (human) (UniProt P45983)
Sequence of MAPK8 (human) (P45983 whole entry, looked up): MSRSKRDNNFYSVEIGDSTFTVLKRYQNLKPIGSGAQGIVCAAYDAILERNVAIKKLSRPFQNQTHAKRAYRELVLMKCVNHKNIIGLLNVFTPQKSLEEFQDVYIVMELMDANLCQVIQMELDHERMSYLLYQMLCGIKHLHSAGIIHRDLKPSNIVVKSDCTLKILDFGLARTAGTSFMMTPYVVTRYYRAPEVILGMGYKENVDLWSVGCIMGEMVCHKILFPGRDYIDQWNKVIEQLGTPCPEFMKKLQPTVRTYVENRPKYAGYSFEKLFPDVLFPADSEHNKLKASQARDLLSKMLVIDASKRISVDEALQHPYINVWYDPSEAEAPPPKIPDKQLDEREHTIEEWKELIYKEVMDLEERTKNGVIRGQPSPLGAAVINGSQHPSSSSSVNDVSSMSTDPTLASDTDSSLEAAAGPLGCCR

MAPK9 (human) = MAPK9 (human) (UniProt P45984)
Sequence of MAPK9 (human) (P45984 whole entry, looked up): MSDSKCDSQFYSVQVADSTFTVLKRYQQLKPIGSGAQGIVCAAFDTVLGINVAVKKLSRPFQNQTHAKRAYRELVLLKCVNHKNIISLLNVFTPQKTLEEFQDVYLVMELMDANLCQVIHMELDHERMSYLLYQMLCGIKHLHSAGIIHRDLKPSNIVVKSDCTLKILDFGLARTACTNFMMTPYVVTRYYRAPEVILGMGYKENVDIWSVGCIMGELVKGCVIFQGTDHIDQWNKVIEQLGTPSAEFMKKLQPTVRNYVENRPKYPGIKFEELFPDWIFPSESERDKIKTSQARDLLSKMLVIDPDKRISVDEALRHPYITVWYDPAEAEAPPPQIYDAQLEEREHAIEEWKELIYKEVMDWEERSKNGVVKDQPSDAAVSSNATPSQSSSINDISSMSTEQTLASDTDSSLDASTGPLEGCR

MAPKAPK3 (human) = MAPKAPK3 (human) (UniProt Q16644)
MKNK2 (human) = MKNK2 (human) (UniProt Q9HBH9)
Sequence of MKNK2 (human) (Q9HBH9 whole entry, looked up): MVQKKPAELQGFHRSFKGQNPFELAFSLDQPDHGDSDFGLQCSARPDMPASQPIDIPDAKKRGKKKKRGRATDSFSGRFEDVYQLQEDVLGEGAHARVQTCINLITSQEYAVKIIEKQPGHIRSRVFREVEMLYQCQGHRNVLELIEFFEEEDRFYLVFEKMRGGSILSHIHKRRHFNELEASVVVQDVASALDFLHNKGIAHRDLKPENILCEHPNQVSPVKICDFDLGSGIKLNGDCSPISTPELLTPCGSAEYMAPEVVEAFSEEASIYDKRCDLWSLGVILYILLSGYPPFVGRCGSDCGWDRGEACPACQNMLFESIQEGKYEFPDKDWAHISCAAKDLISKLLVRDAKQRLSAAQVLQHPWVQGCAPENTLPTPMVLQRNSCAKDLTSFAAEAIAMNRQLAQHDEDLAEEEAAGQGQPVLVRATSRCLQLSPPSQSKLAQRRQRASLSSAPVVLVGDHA

NEK6 (human) = NEK6 (human) (UniProt Q9HC98)
[2] = system: PAK2 (human), Q13177 [T402E]
PAK7 (human) = PAK7 (human) (UniProt Q9P286)
PLK1 (human) = PLK1 (human) (UniProt P53350)
RPS6KA3 KD1 KD2 (human) = RPS6KA3 KD1 KD2 (human) (UniProt P51812)
RPS6KA5 KD1 KD2 (human) = RPS6KA5 KD1 KD2 (human) (UniProt O75582)
SRPK1 (human) = SRPK1 (human) (UniProt Q96SB4)
[3] = target: STK11 CAB39 STRADA (human) (UniProt Q9Y376+Q7RTN6+Q15831)
TBK1 (human) = TBK1 (human) (UniProt Q9UHD2)

Sequence of BTK (human) (Q06187 whole entry, looked up): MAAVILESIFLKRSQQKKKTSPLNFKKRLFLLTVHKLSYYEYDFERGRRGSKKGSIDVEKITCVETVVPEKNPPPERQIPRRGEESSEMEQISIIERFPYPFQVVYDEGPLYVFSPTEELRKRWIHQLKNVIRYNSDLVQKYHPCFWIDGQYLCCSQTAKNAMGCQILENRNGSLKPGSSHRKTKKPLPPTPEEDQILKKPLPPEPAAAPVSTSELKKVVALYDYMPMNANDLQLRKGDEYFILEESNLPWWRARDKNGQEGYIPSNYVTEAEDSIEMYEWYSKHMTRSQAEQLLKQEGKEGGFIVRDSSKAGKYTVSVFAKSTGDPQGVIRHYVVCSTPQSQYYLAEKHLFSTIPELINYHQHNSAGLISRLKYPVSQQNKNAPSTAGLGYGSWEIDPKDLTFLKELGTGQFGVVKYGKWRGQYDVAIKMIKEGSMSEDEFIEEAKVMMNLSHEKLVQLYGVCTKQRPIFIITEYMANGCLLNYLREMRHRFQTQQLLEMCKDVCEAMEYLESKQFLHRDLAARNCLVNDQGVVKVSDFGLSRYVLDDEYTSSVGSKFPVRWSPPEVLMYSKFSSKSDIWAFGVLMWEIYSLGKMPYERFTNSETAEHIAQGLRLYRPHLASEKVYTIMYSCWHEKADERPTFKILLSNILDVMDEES
Sequence of AKT1 (human), P31749 [S473D] (P31749 whole entry S473D, looked up): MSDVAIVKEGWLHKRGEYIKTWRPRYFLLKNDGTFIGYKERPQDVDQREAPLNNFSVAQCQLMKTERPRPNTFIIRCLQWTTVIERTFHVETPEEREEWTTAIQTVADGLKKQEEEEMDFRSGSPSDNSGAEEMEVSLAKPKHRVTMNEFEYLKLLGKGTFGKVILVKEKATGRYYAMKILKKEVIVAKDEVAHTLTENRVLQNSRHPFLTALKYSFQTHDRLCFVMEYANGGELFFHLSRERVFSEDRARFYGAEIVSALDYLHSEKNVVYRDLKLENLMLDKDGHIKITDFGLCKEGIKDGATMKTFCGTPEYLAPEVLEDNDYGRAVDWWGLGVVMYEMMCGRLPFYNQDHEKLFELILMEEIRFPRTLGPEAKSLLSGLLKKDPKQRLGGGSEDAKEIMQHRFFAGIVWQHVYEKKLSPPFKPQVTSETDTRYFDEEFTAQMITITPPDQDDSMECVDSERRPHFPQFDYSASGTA
Sequence of BRSK2 (human) (Q8IWQ3 whole entry, looked up): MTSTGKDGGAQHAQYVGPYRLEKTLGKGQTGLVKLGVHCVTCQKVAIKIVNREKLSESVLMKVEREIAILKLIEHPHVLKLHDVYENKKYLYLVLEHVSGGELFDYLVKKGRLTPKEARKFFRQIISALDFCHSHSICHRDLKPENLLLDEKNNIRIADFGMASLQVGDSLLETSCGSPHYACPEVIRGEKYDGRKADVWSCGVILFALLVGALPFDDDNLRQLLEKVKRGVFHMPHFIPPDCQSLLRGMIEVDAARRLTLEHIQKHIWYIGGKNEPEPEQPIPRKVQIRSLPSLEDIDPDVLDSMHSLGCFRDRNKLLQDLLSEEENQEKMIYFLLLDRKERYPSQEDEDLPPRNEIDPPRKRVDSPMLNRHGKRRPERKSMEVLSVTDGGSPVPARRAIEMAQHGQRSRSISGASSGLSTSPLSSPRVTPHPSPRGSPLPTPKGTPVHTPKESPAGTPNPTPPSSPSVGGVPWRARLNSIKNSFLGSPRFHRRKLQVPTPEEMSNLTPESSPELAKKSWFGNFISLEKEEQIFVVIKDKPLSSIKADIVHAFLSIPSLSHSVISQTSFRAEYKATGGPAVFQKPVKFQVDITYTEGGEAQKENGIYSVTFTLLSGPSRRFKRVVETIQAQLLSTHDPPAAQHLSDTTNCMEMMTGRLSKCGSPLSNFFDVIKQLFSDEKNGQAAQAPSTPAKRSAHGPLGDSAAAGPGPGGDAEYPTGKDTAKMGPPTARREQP

residual activity ([1]; compound 0.1 µM): 104% | residual activity ([1]; compound 1.0 µM): 72% | residual activity ([1]; compound 10.0 µM): 57% | residual activity (AURKA (human); compound 0.1 µM): 78% | residual activity (BRSK1 (human); compound 0.1 µM): 84% | residual activity (BRSK2 (human); compound 0.1 µM): 86% | residual activity (BRSK2 (human); compound 1.0 µM): 61% | residual activity (BRSK2 (human); compound 10.0 µM): 20% | residual activity (BTK (human); compound 0.1 µM): 89% | residual activity (BTK (human); compound 1.0 µM): 96% | residual activity (CSK (human); compound 0.1 µM): 99% | residual activity (CSK (human); compound 1.0 µM): 96% | residual activity (CSK (human); compound 10.0 µM): 98% | residual activity (CSNK1D (human); compound 0.1 µM): 70% | residual activity (CSNK1D (human); compound 1.0 µM): 12% | residual activity (CSNK1D (human); compound 10.0 µM): 3% | residual activity (EEF2K (human); compound 0.1 µM): 120% | residual activity (EEF2K (human); compound 1.0 µM): 110% | residual activity (EPHA4 (human); compound 0.1 µM): 103% | residual activity (ERBB4 (human); compound 0.1 µM): 105% | residual activity (ERBB4 (human); compound 1.0 µM): 86% | residual activity (ERBB4 (human); compound 10.0 µM): 71% | residual activity (FGFR1 (human); compound 0.1 µM): 99% | residual activity (FGFR1 (human); compound 1.0 µM): 77% | residual activity (FGFR1 (human); compound 10.0 µM): 27% | residual activity (GSK3B (human); compound 0.1 µM): 94% | residual activity (GSK3B (human); compound 1.0 µM): 78% | residual activity (GSK3B (human); compound 10.0 µM): 23% | residual activity (HIPK1 (human); compound 0.1 µM): 99% | residual activity (HIPK3 (human); compound 0.1 µM): 100% | residual activity (IKBKB (human); compound 0.1 µM): 94% | residual activity (IKBKB (human); compound 1.0 µM): 97% | residual activity (IKBKB (human); compound 10.0 µM): 64% | residual activity (MAP2K2 (human); compound 0.1 µM): 93% | residual activity (MAP2K6 (human); compound 0.1 µM): 97% | residual activity (MAP3K1 (human); compound 0.1 µM): 92% | residual activity (MAP3K5 (human); compound 0.1 µM): 100% | residual activity (MAPK1 (human); compound 0.1 µM): 100% | residual activity (MAPK1 (human); compound 1.0 µM): 103% | residual activity (MAPK1 (human); compound 10.0 µM): 61% | residual activity (MAPK3 (human); compound 0.1 µM): 105% | residual activity (MAPK3 (human); compound 1.0 µM): 75% | residual activity (MAPK3 (human); compound 10.0 µM): 39% | residual activity (MAPK8 (human); compound 0.1 µM): 81% | residual activity (MAPK8 (human); compound 1.0 µM): 74% | residual activity (MAPK8 (human); compound 10.0 µM): 39% | residual activity (MAPK9 (human); compound 0.1 µM): 80% | residual activity (MAPK9 (human); compound 1.0 µM): 46% | residual activity (MAPK9 (human); compound 10.0 µM): 9% | residual activity (MAPKAPK3 (human); compound 0.1 µM): 101% | residual activity (MKNK2 (human); compound 0.1 µM): 68% | residual activity (MKNK2 (human); compound 1.0 µM): 14% | residual activity (MKNK2 (human); compound 10.0 µM): 4% | residual activity (NEK6 (human); compound 0.1 µM): 104% | residual activity (NEK6 (human); compound 10.0 µM): 107% | residual activity ([2]; compound 0.1 µM): 99% | residual activity (PAK7 (human); compound 0.1 µM): 110% | residual activity (PAK7 (human); compound 1.0 µM): 88% | residual activity (PAK7 (human); compound 10.0 µM): 38% | residual activity (PLK1 (human); compound 0.1 µM): 93% | residual activity (PLK1 (human); compound 1.0 µM): 31% | residual activity (PLK1 (human); compound 10.0 µM): 5% | residual activity (RPS6KA3 KD1 KD2 (human); compound 0.1 µM): 96% | residual activity (RPS6KA3 KD1 KD2 (human); compound 1.0 µM): 97% | residual activity (RPS6KA5 KD1 KD2 (human); compound 0.1 µM): 94% | residual activity (RPS6KA5 KD1 KD2 (human); compound 1.0 µM): 103% | residual activity (RPS6KA5 KD1 KD2 (human); compound 10.0 µM): 62% | residual activity (SRPK1 (human); compound 0.1 µM): 82% | residual activity (SRPK1 (human); compound 1.0 µM): 104% | residual activity (SRPK1 (human); compound 10.0 µM): 50% | residual activity ([3]; compound 0.1 µM): 86% | residual activity ([3]; compound 1.0 µM): 89% | residual activity (TBK1 (human); compound 0.1 µM): 86% | residual activity (TBK1 (human); compound 1.0 µM): 70% | residual activity (TBK1 (human); compound 10.0 µM): 27%
SMILES: O=C(O)c1ccc(-c2c[nH]c3ncc(-c4ccccc4)cc23)cc1C1CCCC1
residual activity (MAPK15 (human); compound 0.1 µM): 23% | residual activity (MAPK15 (human); compound 1.0 µM): 32% | residual activity (MAPK15 (human); compound 10.0 µM): 23%

residual activity ([1]; compound 1.0 µM): 118% | residual activity ([1]; compound 10.0 µM): 119% | residual activity (AURKA (human); compound 1.0 µM): 103% | residual activity (AURKA (human); compound 10.0 µM): 97% | residual activity (BRSK1 (human); compound 1.0 µM): 89% | residual activity (BRSK2 (human); compound 1.0 µM): 92% | residual activity (BRSK2 (human); compound 10.0 µM): 86% | residual activity (BTK (human); compound 10.0 µM): 105% | residual activity (CSK (human); compound 1.0 µM): 78% | residual activity (CSNK1D (human); compound 1.0 µM): 86% | residual activity (CSNK1D (human); compound 10.0 µM): 84% | residual activity (EEF2K (human); compound 1.0 µM): 100% | residual activity (EEF2K (human); compound 10.0 µM): 107% | residual activity (EPHA4 (human); compound 10.0 µM): 105% | residual activity (ERBB4 (human); compound 1.0 µM): 110% | residual activity (ERBB4 (human); compound 10.0 µM): 116% | residual activity (FGFR1 (human); compound 10.0 µM): 126% | residual activity (GSK3B (human); compound 1.0 µM): 93% | residual activity (GSK3B (human); compound 10.0 µM): 98% | residual activity (HIPK1 (human); compound 1.0 µM): 98% | residual activity (HIPK3 (human); compound 1.0 µM): 84% | residual activity (HIPK3 (human); compound 10.0 µM): 89% | residual activity (IKBKB (human); compound 1.0 µM): 100% | residual activity (IKBKB (human); compound 10.0 µM): 96% | residual activity (MAP2K2 (human); compound 1.0 µM): 104% | residual activity (MAP2K2 (human); compound 10.0 µM): 99% | residual activity (MAP2K6 (human); compound 1.0 µM): 95% | residual activity (MAP2K6 (human); compound 10.0 µM): 94% | residual activity (MAP3K1 (human); compound 10.0 µM): 107% | residual activity (MAP3K5 (human); compound 1.0 µM): 87% | residual activity (MAP3K5 (human); compound 10.0 µM): 87% | residual activity (MAPK1 (human); compound 10.0 µM): 89% | residual activity (MAPK3 (human); compound 1.0 µM): 77% | residual activity (MAPK3 (human); compound 10.0 µM): 73% | residual activity (MAPK8 (human); compound 1.0 µM): 84% | residual activity (MAPK8 (human); compound 10.0 µM): 97% | residual activity (MAPK9 (human); compound 1.0 µM): 83% | residual activity (MAPK9 (human); compound 10.0 µM): 88% | residual activity (MAPKAPK3 (human); compound 1.0 µM): 103% | residual activity (MAPKAPK3 (human); compound 10.0 µM): 101% | residual activity (MKNK2 (human); compound 10.0 µM): 108% | residual activity (NEK6 (human); compound 10.0 µM): 102% | residual activity ([2]; compound 1.0 µM): 98% | residual activity ([2]; compound 10.0 µM): 93% | residual activity (PAK7 (human); compound 10.0 µM): 89% | residual activity (PLK1 (human); compound 1.0 µM): 93% | residual activity (PLK1 (human); compound 10.0 µM): 95% | residual activity (RPS6KA3 KD1 KD2 (human); compound 1.0 µM): 100% | residual activity (RPS6KA3 KD1 KD2 (human); compound 10.0 µM): 96% | residual activity (RPS6KA5 KD1 KD2 (human); compound 1.0 µM): 103% | residual activity (RPS6KA5 KD1 KD2 (human); compound 10.0 µM): 110% | residual activity (SRPK1 (human); compound 1.0 µM): 92% | residual activity (SRPK1 (human); compound 10.0 µM): 102% | residual activity ([3]; compound 1.0 µM): 127% | residual activity ([3]; compound 10.0 µM): 104% | residual activity (TBK1 (human); compound 10.0 µM): 88%
SMILES: NS(=O)(=O)OC[C@@H]1C[C@@H](n2ccc3c(N[C@H]4CCc5ccccc54)ncnc32)C[C@@H]1O
